Data: patent US20100267743A1, “3-(PHENOXYPYRROLIDIN-3-YL-METHYL)HETEROARYL, 3-(PHENYLPYRROLIDIN-3-YLMETHOXY)HETEROARYL, AND 3-(HETEROARYLPYRROLIDIN-3-YLMETHOXY)HETEROARYL COMPOUNDS” (priority 2009, published 2010)

How the values were obtained:
SERT = SERT (Homo sapiens, UniProt P31645); test: hSERT radioligand binding assay (3H-citalopram); parameters: expressed in transfected cells; host or cells: HEK-293; conditions: hSERT membranes (HEK-293), 1.0 nM 3H-citalopram; for Ki: read-out: SERT pKi (converted)
Chain of SERT (P31645 whole entry): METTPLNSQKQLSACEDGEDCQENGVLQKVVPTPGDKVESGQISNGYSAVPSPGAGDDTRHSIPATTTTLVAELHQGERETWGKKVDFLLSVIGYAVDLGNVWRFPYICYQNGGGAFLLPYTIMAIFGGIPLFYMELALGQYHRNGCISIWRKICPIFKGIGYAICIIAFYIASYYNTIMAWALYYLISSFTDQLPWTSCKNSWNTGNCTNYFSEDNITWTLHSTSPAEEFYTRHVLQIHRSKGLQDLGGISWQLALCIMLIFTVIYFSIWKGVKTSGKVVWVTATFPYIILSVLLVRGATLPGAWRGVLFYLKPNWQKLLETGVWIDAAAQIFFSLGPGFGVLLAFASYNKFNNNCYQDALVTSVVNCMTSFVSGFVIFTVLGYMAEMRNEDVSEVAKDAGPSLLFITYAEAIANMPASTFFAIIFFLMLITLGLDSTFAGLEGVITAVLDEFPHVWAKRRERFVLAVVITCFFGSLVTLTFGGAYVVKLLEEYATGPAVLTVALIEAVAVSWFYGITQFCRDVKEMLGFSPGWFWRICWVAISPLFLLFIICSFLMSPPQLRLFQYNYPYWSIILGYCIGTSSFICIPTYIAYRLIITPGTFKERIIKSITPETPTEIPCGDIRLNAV
Description: (§1) Membrane radioligand binding assays were used to measure inhibition of labeled ligand (^3H-citalopram or ^3H-nisoxetine or ^3H-WIN35428) binding to membranes prepared from cells expressing the respective human recombinant transporter (hSERT or hNET or hDAT) in order to determine the pKi values of test compounds at the transporters.
(§2) Recombinant human embryonic kidney (HEK-293) derived cell lines stably transfected with hSERT or hNET, respectively, were grown in DMEM medium supplemented with 10% dialyzed FBS (for hSERT) or FBS (for hNET), 100 μg/ml penicillin, 100 μg/ml streptomycin, 2 mM L-glutamine and 250 μg/ml of the aminoglycoside antibiotic G418, in a 5% CO2 humidified incubator at 37° C. When cultures reached 80% confluence, the cells were washed thoroughly in PBS (without […] and Mg^2+) and lifted with 5 mM EDTA in PBS. Cells were pelleted by centrifugation, resuspended in lysis buffer (10 mM Tris-HCl, pH7.5 containing 1 mM EDTA), homogenized, pelleted by centrifugation, then resuspended in 50 mM Tris-HCl, pH 7.5 and 10% sucrose at 4° C. Protein concentration of the membrane suspension was determined using a Bio-Rad Bradford Protein Assay kit. Membranes were snap frozen and stored at −80° C. Chinese hamster ovary membranes expressing hDAT (CHO-DAT) were purchased from PerkinElmer and stored at −80° C.
(§3) Binding assays were performed in a 96-well assay plate in a total volume of 200 μl assay buffer (50 mM Tris-HCl, 120 mM NaCl, 5 mM KCl, pH 7.4) with 0.5, 1, and 3 μg membrane protein, for SERT, NET and DAT, respectively.
(§4) Stock solutions (10 mM in DMSO) of test compound were prepared and serial dilutions made using Dilution Buffer (50 mM Tris-HCl, 120 mM NaCl, 5 mM KCl, pH 7.4, 0.1% BSA, 400 μM ascorbic acid).
(§5) Following a 60 minute incubation at 22° C. (or a period sufficient to reach equilibrium), the membranes were harvested by rapid filtration over a 96-well UniFilter GF/B plate, pretreated with 0.3% polyethyleneimine, and washed 6 times with 300 μl wash buffer (50 mM Tris-HCl, 0.9% NaCl, pH 7.5 at 4° C.). Plates were dried overnight at room temperature, ˜45 μl of MicroScint™-20 (Perkin Elmer) added and bound radioactivity quantitated via liquid scintillation spectroscopy. Inhibition curves and saturation isotherms were analyzed using GraphPad Prism Software package (GraphPad Software, Inc., San Diego, Calif.). IC50 values were generated from concentration response curves using the Sigmoidal Dose Response (variable slope) algorithm in Prism GraphPad. Kd and Bmax values for the radioligand were generated from saturation isotherms using the Saturation Binding Global Fit algorithm in Prism GraphPad. pKi (negative decadic logarithm of Ki) values for test compounds were calculated from the best-fit IC50 values, and the Kd value of the radioligand, using the Cheng-Prusoff equation (Cheng & Prusoff (1973) Biochem. Pharmacol. 22(23):3099-3108): Ki=IC50/(1+[L]/Kd), where [L]=concentration radioligand.

NET = NET (Homo sapiens, UniProt P23975); test: hNET radioligand binding assay (3H-nisoxetine); parameters: expressed in transfected cells; host or cells: HEK-293; conditions: hNET membranes (HEK-293), 1.0 nM 3H-nisoxetine; for Ki: read-out: NET pKi (converted)
Chain of NET (P23975 whole entry): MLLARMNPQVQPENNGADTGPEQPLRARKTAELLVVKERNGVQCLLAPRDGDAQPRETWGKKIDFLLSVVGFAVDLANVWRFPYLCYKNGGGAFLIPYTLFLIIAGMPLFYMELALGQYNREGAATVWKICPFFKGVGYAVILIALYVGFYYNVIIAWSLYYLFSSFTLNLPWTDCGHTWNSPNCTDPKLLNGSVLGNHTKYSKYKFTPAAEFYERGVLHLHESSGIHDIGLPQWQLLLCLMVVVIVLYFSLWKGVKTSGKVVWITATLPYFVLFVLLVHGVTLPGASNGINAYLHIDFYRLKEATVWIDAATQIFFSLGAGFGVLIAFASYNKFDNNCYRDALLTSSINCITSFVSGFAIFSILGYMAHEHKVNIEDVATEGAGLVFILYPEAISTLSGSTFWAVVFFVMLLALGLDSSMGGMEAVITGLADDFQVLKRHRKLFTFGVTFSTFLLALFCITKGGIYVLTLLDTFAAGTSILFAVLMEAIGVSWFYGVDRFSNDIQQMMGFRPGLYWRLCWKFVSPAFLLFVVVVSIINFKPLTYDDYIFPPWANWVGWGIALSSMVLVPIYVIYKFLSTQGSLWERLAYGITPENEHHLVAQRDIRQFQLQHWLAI
Description: as §1, §2, §3, §4, §5

Compound | Ki (SERT) | Ki (NET) | SERT pKi (SERT) | NET pKi (NET)
FC(F)(F)Oc1cccc(C(Oc2cccc3ccccc23)C2CCNC2)c1 (stereo not shown) [21-7] | ≤ 100 nM | ≤ 10000 nM |  | 
Cc1cc(Cl)c(O[C@@H](c2ncco2)[C@H]2CCNC2)cc1F.O=C(O)C(F)(F)F [6-24] |  |  | ≧7.0 | ≧7.0
Cc1cc(Cl)c(OC(c2nccs2)C2CCNC2)c(Cl)c1.O=C(O)C(F)(F)F (mixture of isomers) [Example 5-12, 2-[((S)-(2,6-Dichloro-4-methylphenoxy)-pyrrolidin-3-yl-methyl]thiazole] |  |  | ≧7.0 | ≧5.0
COc1ccccc1O[C@@H](c1cnccn1)[C@H]1CCNC1.O=C(O)C(F)(F)F [10-7] |  |  | ≧5.0 | ≧7.0
Clc1cncc(C(Oc2cc(Cl)c(Cl)cc2Cl)C2CCNC2)c1 [Example 2-1, 3-Chloro-5-[(R)-(S)-pyrrolidin-3-y1-(2,4,5-trichlorophenoxy)methyl]pyridine] | ≤ 100 nM | ≤ 10000 nM |  | 
Clc1ccc(OC(c2ncco2)C2CCNC2)c(Cc2ccccc2)c1 (stereo not shown) [6-16] |  |  | ≧7.0 | ≧7.0
COC(=O)c1cc(Cl)ccc1O[C@@H](c1ncco1)[C@H]1CCNC1.O=C(O)C(F)(F)F [6-29] |  |  | ≧7.0 | ≧7.0
O=C(O)C(F)(F)F.c1ccc(-c2ccccc2O[C@@H](c2ncco2)[C@H]2CCNC2)cc1 [6-42] |  |  | ≧5.0 | ≧7.0
Fc1cncc([C@H](Oc2ccc3ccccc3c2)[C@H]2CCNC2)c1.O=C(O)C(F)(F)F [20-3] |  |  | ≧7.0 | ≧7.0
Fc1ccc(O[C@@H](c2nccs2)[C@H]2CCNC2)cc1Cl [Example 5-30] |  |  | ≧7.0 | ≧5.0
CCOc1ccccc1O[C@@H](c1ncco1)[C@H]1CCNC1.O=C(O)C(F)(F)F [6-38] |  |  | ≧5.0 | ≧7.0
Fc1cc(F)c(Cl)c(O[C@H](c2cncc(Cl)c2)[C@H]2CCNC2)c1Cl [Example 2-4, 3-Chloro-5-[(S)-(2,6-dichloro-3,5-difluorophenoxy)-(S)-pyrrolidin-3-yl-methyl]-pyridine] | ≤ 100 nM | ≤ 10000 nM |  | 
Clc1ncccc1O[C@@H](c1ccccc1)C1CCNC1 (stereo partly shown) [15-4] | ≤ 100 nM | ≤ 100 nM |  | 
Clc1ncccc1O[C@H](c1ccccc1)[C@@H]1CCNC1.O=C(O)C(F)(F)F [15-5] |  |  | ≧7.0 | ≧7.0
Clc1cc(Cl)cc(O[C@H](c2nccs2)[C@H]2CCNC2)c1 [Example 5-27] |  |  | ≧7.0 | ≧7.0
CCc1cc(F)ccc1O[C@H](c1cncc(F)c1)[C@@H]1CCNC1 [Example 2-58, 3-[(R)-(2-Ethy1-4-fluorophenoxy)-(S)-pyrrolidin-3-yl-methyl]-5-fluoropyridine] |  |  | ≧7.0 | ≧7.0
Clc1ccc(O[C@@H](c2ccccc2)C2CCNC2)c(Cl)n1 (stereo partly shown) [15-1] | ≤ 100 nM | ≤ 100 nM |  | 
COc1ccccc1O[C@@H](c1ncco1)[C@H]1CCNC1.O=C(O)C(F)(F)F [6-52] |  |  | ≧5.0 | ≧7.0
CCCOc1ncccc1O[C@@H](c1ccccc1)[C@H]1CCNC1.O=C(O)C(F)(F)F [15-19] |  |  | ≧7.0 | ≧7.0
Fc1ccc(F)c(O[C@@H](c2cncnc2)[C@H]2CCNC2)c1Cl.O=C(O)C(F)(F)F [12-1] |  |  | ≧5.0 | ≧7.0
Fc1ccc(O[C@H](c2cccnc2)[C@H]2CCNC2)c(F)c1 [Example 2-71, 3-[(S)-(2,4-Difluorophenoxy)-(S)-pyrrolidin-3-yl-methyl]pyridine] | ≤ 100 nM | ≤ 100 nM |  | 
Clc1cc(O[C@@H](c2ccccc2)C2CCNC2)ccn1 (stereo partly shown) [16-3] | ≤ 100 nM | ≤ 10000 nM |  | 

Compound | Ki (SERT) | Ki (NET) | SERT pKi (SERT) | NET pKi (NET)
Fc1cc(F)c(OC(c2nccs2)C2CCNC2)c(F)c1.O=C(O)C(F)(F)F (mixture of isomers) [Example 5-5, 2-[((S)-Pyrrolidin-3-yl-(2,4,6-trifluorophenoxy)methyl]thiazole] |  |  | ≧7.0 | ≧7.0
Clc1cccc(O[C@@H](c2ncco2)[C@H]2CCNC2)c1.O=C(O)C(F)(F)F [6-45] |  |  | ≧5.0 | ≧7.0
Fc1cncc([C@@H](Oc2c(Cl)c(F)cc(F)c2Cl)[C@H]2CCNC2)c1 [Example 2-42, 3-[(S)-(2,6-Dichloro-3,5-difluorophenoxy)-(S)-pyrrolidin-3-yl-methyl]-5-fluoropyridine] | ≤ 100 nM | ≤ 10000 nM |  | 
Cc1c(Cl)cccc1O[C@@H](c1ncco1)[C@H]1CCNC1.O=C(O)C(F)(F)F [6-50] |  |  | ≧7.0 | ≧7.0
Fc1cc(Cl)ccc1O[C@H](c1nccs1)[C@H]1CCNC1 [Example 5-33] |  |  | ≧7.0 | ≧7.0
c1ccc(C(Oc2cccc3ccccc23)C2CCNC2)cc1 (stereo not shown) [21-1] | ≤ 100 nM | ≤ 100 nM |  | 
Cc1cc(Cl)cc(C)c1O[C@@H](c1ncco1)[C@H]1CCNC1.O=C(O)C(F)(F)F [6-15] |  |  | ≧7.0 | ≧5.0
Fc1ccc(O[C@@H](c2ccccc2)[C@H]2CCNC2)nc1F.O=C(O)C(F)(F)F [14-5] |  |  | ≧5.0 | ≧7.0
Fc1cnc(O[C@@H](c2ccccc2)[C@H]2CCNC2)c(F)c1.O=C(O)C(F)(F)F [14-17] |  |  | ≧5.0 | ≧7.0
Cc1cc(Cl)cc(C)c1OC(c1cncc(F)c1)C1CCNC1 [Example 2-46, 3-[(R)-(4-Chloro-2,6-dimethylphenoxy)-(S)-pyrrolidin-3-yl-methy1]-5-fluoropyridine] | ≤ 100 nM | ≤ 10000 nM |  | 
Fc1cc(F)c(Cl)c(O[C@H](c2ncco2)[C@H]2CCNC2)c1Cl [6-10] | ≤ 100 nM | ≤ 10000 nM |  | 
Cc1cc(Cl)ccc1O[C@@H](c1ncco1)[C@H]1CCNC1.O=C(O)C(F)(F)F [6-34] |  |  | ≧7.0 | ≧7.0
Cc1cc(Cl)ccc1O[C@@H](c1nccs1)[C@H]1CCNC1 [Example 5-22] |  |  | ≧7.0 | ≧7.0
COc1cc(F)c(O[C@@H](c2nccs2)[C@H]2CCNC2)c(F)c1 [Example 5-28] |  |  | ≧7.0 | ≧5.0
Clc1cc(-c2ccccc2)ccc1O[C@@H](c1ncco1)[C@H]1CCNC1.O=C(O)C(F)(F)F [6-25] |  |  | ≧5.0 | ≧7.0
Fc1cnc(O[C@@H](c2ccccc2)[C@H]2CCNC2)c(F)c1C(F)(F)F.O=C(O)C(F)(F)F [14-18] |  |  | ≧7.0 | ≧7.0
Fc1cc(Cl)c(O[C@H](c2cncc(Cl)c2)[C@@H]2CCNC2)c(Cl)c1 [Example 2-26, 3-Chloro-5-[(R)-(2,6-dichloro-4-fluorophenoxy)-(S)-pyrrolidin-3-yl-methy1]-pyridine] |  |  | ≧7.0 | ≧5.0
Cc1ccccc1O[C@@H](c1ncco1)[C@H]1CCNC1 [6-33] | ≤ 10000 nM | ≤ 100 nM |  | 
Fc1ccc(F)c(O[C@H](c2ncco2)[C@H]2CCNC2)c1Cl [6-21] | ≤ 10000 nM | ≤ 10000 nM |  | 
Fc1ccc(F)c(O[C@@H](c2cnccn2)[C@H]2CCNC2)c1Cl.O=C(O)C(F)(F)F [10-3] |  |  | ≧5.0 | ≧7.0
Fc1cc(F)c(O[C@H](c2ccncc2)[C@H]2CCNC2)c(F)c1 [Example 3-2, 4-[(S)-(S)-Pyrrolidin-3-yl-(2,4,6-trifluorophenoxy)methyl]pyridine] | ≤ 100 nM | ≤ 100 nM |  | 
COc1cc(F)c(O[C@H](c2nccs2)C2CCNC2)c(F)c1 (stereo partly shown) [Example 5-29] |  |  | ≧7.0 | ≧5.0
